Tests used:
D-lactate dehydrogenase = assay: Isotopic exchange assay using D-lactate dehydrogenase: specificity; type: biochemical; conditions: enzyme from Lactobacillus plantarum; for interference with assay results: D-lactate / pyruvate assay
Method: D-lactate and pyruvate in plasma are determined using D-lactate dehydrogenase from Lactobacillus leichmannii (Sigma or Boehringer-Mannheimbiochemicals) obtained by the procedure of Brandt, R. B. "Methods in Enzymology", vol. 89, page 35 (Academic Press, New York, 1982), pages 35-40 of which are incorporated herein by reference. The assay will detect D-lactate concentrations in plasma from 0.006 to 1.2 mM and at higher concentrations in food or microbiological samples. If the enzyme is from Lactobacillus plantarum obtained according to Dennis, D.; Kaplan, N. O. J. Bio.

homoserine dehydrogenase = assay: Isotopic exchange assay using homoserine dehydrogenase: specificity; type: biochemical, Baker's Yeast; conditions: for interference with assay results: homoserine / aspartic-β-semialdehyde assay
Method: Homoserine and aspartic-β-semialdehyde are determined using homoserine dehydrogenase from Baker's Yeast (Anheuser-Busch) obtained by the procedure of Black, S. "Methods in Enzymology", vol. V, page 820 (Academic Press, New York, 1962), pages 824-827 of which are incorporated herein by reference. […] Other non-interfering substances will include 3-aminopropanol, γ-hydroxybutyrate, acetaldehyde, DL-threonine, DL-serine, and DL-homocysteine. DL-glutamic γ-semialdehyde will react at 1% of the rate of aspartic-β-semialdehyde.

[1] = tested on: ω-hydroxydecanoate dehydrogenase; assay: Isotopic exchange assay using ω-hydroxydecanoate dehydrogenase: specificity; type: biochemical, rabbit; conditions: for relative rate of reaction: value in brackets after the substrate; for interference with assay results: 10-hydroxydecanoate / 10-oxodecanoate assay
Excerpt: The enzyme obtained will be contaminated to some degree with L-lactate dehydrogenase (I.U.B. 1.1.1.27).

[2] = tested on: soluble 17β-hydroxysteroid dehydrogenase; assay: Isotopic exchange assay using 17β-hydroxysteroid dehydrogenase: specificity; type: biochemical, human
Method: Estradiol-17β and estrone are determined using soluble 17β-hydroxysteroid dehydrogenase from human term placenta obtained by the procedure of Jarabak, J. "Methods in Enzymology", vol.

fructuronate reductase = assay: Isotopic exchange assay using fructuronate reductase: specificity; type: biochemical, Escheria coli K-12 strain S 3000 (Hfr H); conditions: for interference with assay results: D-mannonate / D-fructuronate assay
Method: D-mannonate and D-fructuronate are determined using fructuronate reductase from Escheria coli K-12 strain S 3000 (Hfr H) obtained by the procedure of Portalier, R.; Stoeber, F. "Methods in Enzymology", vol. 89, page 210 (Academic Press, New York, 1982), pages 210-218 of which are incorporated herein by reference. […] D-tagaturonate and D-altronate are 20% as active as D-fructuronate and D-mannonate, respectively.

[3] = tested on: 15-hydroxyprostaglandin dehydrogenase; assay: Isotopic exchange assay using 15-hydroxyprostaglandin dehydrogenase: specificity; type: biochemical, pig
Method: 11α,15-dihydroxy-9-oxoprost-13-enoate and 11α-hydroxy-9, 15-dioxoprost-13-enoate are determined using 15-hydroxyprostaglandin dehydrogenase from pig lung obtained by the procedure of Anggard, E.; Samuelsson, B. "Methods in Enzymology", vol. 14, page 215 (Academic Press, New York, 1969), pages 215-219 of which are incorporated herein by reference. The assay will detect most 15-hydroxy or 15-oxo-prostaglandins except those containing the dienone chromophore such as prostaglandin B compounds and their 19-hydroxylated derivatives.

[4] = tested on: 21-hydroxysteroid dehydrogenase; assay: Isotopic exchange assay using 21-hydroxysteroid dehydrogenase: specificity; type: biochemical, sheep
Method: Cortisol and 21-dehydrocortisol are determined using AND dependent 21-hydroxysteroid dehydrogenase from sheep liver obtained by the procedure of Monder, C.; Furfine, C. S. "Methods in Enzymology", vol. […] 21-hydroxy-derivatives of cortisol, cortisone, corticosterone, 11-deoxycortisol, Δ^1 -cortisone, Δ^1 -cortisol, 11-deoxycorticosterone, and 9α-fluorocortisol will all be assayed using this enzyme.

CCCC[C@@H](O)C(=O)O
interference with assay results (D-lactate dehydrogenase): will not interfere with the assay results

CC(C)C[C@@H](O)C(=O)O
interference with assay results (D-lactate dehydrogenase): will not interfere with the assay results

NC(CCC=O)C(=O)O (racemic) [DL-glutamic γ-semialdehyde]
rate of reaction relative to aspartic-β-semialdehyde (homoserine dehydrogenase): 1%

NC(CCS)C(=O)O (racemic) [DL-homocysteine]
interference with assay results (homoserine dehydrogenase): non-interfering

NC(CO)C(=O)O (racemic) [DL-serine]
interference with assay results (homoserine dehydrogenase): non-interfering

C[C@@H](O)[C@H](N)C(=O)O (racemic) [DL-threonine]
interference with assay results (homoserine dehydrogenase): non-interfering

CC[C@@H](O)C(=O)O [2-hydroxy-D-butyrate]
interference with assay results (D-lactate dehydrogenase): will not interfere with the assay results

NCCCO [3-aminopropanol]
interference with assay results (homoserine dehydrogenase): non-interfering

O=C(O)CCCCCCCCCO [10-hydroxycaproate]
relative rate of reaction [1]: 0.90

O=C(O)CCCCCCCCCCO [11-hydroxy undecanoate]
relative rate of reaction [1]: 100

C[C@]12CC[C@@H]3c4ccc(O)cc4CC[C@H]3[C@@H]1C[C@H](O)C2 [16β-estradiol]
interference with assay results ([2]; estradiol-17β / estrone assay): will not interfere with the assay results

C[C@H](O)[C@H]1CC[C@H]2[C@@H]3CCC4=CC(=O)CC[C@]4(C)[C@H]3CC[C@]12C [20α-hydroxy derivative]
rate of reaction relative to estrone [2]: one-fiftieth

O=C(CO)[C@@H](O)[C@H](O)[C@H](O)[C@H](O)CO [D-altro-heptulose]
interference with assay results (fructuronate reductase): will not interfere with assay results

O=C[C@@H](O)[C@H](O)[C@H](O)CO [D-arabinose]
interference with assay results (fructuronate reductase): will not interfere with assay results

O=C(CO)[C@@H](O)[C@H](O)[C@H](O)CO [D-fructose]
interference with assay results (fructuronate reductase): will not interfere with assay results

O=C[C@H](O)[C@@H](O)[C@@H](O)[C@H](O)CO [D-galactose]
interference with assay results (fructuronate reductase): will not interfere with assay results

O=C[C@H](O)[C@@H](O)[C@H](O)[C@H](O)CO [D-glucose]
interference with assay results (fructuronate reductase): will not interfere with assay results

O=C[C@@H](O)[C@@H](O)[C@H](O)[C@H](O)C(O)CO (stereo partly drawn) [D-manno-heptose]
interference with assay results (fructuronate reductase): will not interfere with assay results

O=C[C@@H](O)[C@@H](O)[C@H](O)[C@H](O)CO [D-mannose]
interference with assay results (fructuronate reductase): will not interfere with assay results

O=C[C@H](O)[C@H](O)[C@H](O)CO [D-ribose]
interference with assay results (fructuronate reductase): will not interfere with assay results

O=C(CO)[C@H](O)[C@H](O)CO [D-ribulose]
interference with assay results (fructuronate reductase): will not interfere with assay results

O=C(CO)[C@H](O)[C@@H](O)[C@H](O)CO [D-sorbose]
interference with assay results (fructuronate reductase): will not interfere with assay results

O=C(CO)[C@@H](O)[C@@H](O)[C@H](O)CO [D-tagatose]
interference with assay results (fructuronate reductase): will not interfere with assay results

O=C[C@H](O)[C@@H](O)[C@H](O)CO [D-xylose]
interference with assay results (fructuronate reductase): will not interfere with assay results

CC(C)[C@@H](O)C(=O)O [Disovalerate]
interference with assay results (D-lactate dehydrogenase): will not interfere with the assay results

O=C[C@H](O)[C@@H](O)[C@@H](O)CO [L-arabinose]
interference with assay results (fructuronate reductase): will not interfere with assay results

C[C@H](O)C(=O)O [L-lactate]
interference with assay results (D-lactate dehydrogenase): will not interfere with the assay results

O=C[C@H](O)[C@H](O)[C@@H](O)CO [L-lyxose]
interference with assay results (fructuronate reductase): will not interfere with assay results

O=C[C@@H](O)[C@H](O)[C@@H](O)CO [L-xylose]
interference with assay results (fructuronate reductase): will not interfere with assay results

CC(=O)[C@H]1CC[C@H]2[C@@H]3CCC4=CC(=O)CC[C@]4(C)[C@H]3CC[C@]12C [Progesterone]
rate of reaction relative to estrone [2]: one-fiftieth

CC=O [acetaldehyde]
interference with assay results (homoserine dehydrogenase): non-interfering

CCO [ethanol]
interference with assay results [1]: will not interfere with assay results

NCCO [ethanolamine]
interference with assay results [1]: will not interfere with assay results

Cc1ncc(CO)c(CO)c1O [pyridoxine]
interference with assay results [1]: will not interfere with assay results

N[C@@H](CO)C(=O)O [serine]
interference with assay results [1]: will not interfere with assay results

C[C@@H](O)[C@H](N)C(=O)O [threonine]
interference with assay results [1]: will not interfere with assay results

nicotinamide adenine dinucleotide phosphate [NAD(P)]
replacement of NAD as cofactor [3]: will not replace NAD | substitution for NAD as cofactor (fructuronate reductase): will not substitute for AND | replacement of NAD as cofactor (D-lactate dehydrogenase): will not replace NAD | replacement of NAD as cofactor [4]: will not replace NAD

— patent publication US5272054A, “Assay by enzyme-catalyzed isotopic exchange” (Syntex (U.S.A.) Inc., priority 1992, dated 1993)
